What was measured:
[1] = target: T1, Alpha-2B adrenergic receptor (Homo sapiens, UniProt P18089)
T1 sequence (P18089 whole entry): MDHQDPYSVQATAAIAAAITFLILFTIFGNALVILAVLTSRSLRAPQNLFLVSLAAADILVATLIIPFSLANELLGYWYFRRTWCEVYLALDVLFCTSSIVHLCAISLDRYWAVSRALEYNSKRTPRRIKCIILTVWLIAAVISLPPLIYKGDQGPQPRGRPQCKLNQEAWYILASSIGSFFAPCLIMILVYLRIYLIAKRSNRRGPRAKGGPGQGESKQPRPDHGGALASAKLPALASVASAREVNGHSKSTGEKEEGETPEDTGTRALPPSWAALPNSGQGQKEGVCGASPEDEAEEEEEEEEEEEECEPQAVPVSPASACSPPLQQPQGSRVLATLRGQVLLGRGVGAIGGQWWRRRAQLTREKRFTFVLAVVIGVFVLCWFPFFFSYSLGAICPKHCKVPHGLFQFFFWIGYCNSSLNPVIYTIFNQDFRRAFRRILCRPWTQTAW

[2] = target: Beta-1 adrenergic receptor (Homo sapiens, UniProt P08588); type: functional
Beta-1 adrenergic receptor, sequence (P08588 whole entry): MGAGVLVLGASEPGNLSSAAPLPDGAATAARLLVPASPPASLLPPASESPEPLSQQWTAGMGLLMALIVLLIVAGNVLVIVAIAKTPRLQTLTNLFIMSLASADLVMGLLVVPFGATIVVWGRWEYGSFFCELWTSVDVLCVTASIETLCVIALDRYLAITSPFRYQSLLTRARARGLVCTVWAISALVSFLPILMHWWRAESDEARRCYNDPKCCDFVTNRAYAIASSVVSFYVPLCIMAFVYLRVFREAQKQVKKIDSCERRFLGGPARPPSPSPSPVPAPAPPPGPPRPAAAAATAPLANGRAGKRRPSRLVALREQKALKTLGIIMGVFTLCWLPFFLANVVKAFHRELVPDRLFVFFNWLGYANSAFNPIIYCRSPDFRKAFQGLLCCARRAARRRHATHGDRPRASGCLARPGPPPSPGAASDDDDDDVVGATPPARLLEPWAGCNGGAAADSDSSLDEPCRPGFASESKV

Vasopressin V1a receptor = Vasopressin V1a receptor (Homo sapiens, UniProt P37288)
Vasopressin V1a receptor, sequence (P37288 whole entry): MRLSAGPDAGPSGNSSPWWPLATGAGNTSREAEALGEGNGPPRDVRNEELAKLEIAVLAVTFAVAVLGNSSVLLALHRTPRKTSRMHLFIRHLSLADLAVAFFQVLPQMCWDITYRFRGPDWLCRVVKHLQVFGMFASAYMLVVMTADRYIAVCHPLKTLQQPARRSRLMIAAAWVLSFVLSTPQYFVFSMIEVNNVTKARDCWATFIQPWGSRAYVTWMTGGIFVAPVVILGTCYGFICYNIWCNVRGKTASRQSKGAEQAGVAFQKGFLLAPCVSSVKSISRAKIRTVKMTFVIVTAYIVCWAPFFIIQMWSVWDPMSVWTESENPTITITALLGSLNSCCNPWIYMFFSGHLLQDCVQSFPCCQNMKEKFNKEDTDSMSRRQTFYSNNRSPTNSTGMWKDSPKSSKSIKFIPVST

[3] = target: Gamma-aminobutyric acid receptor subunit alpha-1 (Rattus norvegicus, UniProt P62813); type: functional
Gamma-aminobutyric acid receptor subunit alpha-1, sequence (P62813 whole entry): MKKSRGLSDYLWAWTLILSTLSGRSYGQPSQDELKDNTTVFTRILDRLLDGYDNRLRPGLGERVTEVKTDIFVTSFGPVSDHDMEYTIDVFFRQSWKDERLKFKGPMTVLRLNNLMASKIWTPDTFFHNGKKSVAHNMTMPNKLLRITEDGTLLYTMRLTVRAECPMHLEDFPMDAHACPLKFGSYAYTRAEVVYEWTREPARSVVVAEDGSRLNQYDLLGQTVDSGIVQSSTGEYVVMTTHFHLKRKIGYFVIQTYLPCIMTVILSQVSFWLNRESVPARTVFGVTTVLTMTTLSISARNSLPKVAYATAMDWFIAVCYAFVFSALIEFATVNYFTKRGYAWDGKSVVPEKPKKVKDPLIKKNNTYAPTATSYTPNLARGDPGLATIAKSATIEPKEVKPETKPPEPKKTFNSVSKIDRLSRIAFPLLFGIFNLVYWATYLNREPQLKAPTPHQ

[4] = target: 5-hydroxytryptamine receptor 2A (Homo sapiens, UniProt P28223); type: functional, cell-based
5-hydroxytryptamine receptor 2A, sequence (P28223 whole entry): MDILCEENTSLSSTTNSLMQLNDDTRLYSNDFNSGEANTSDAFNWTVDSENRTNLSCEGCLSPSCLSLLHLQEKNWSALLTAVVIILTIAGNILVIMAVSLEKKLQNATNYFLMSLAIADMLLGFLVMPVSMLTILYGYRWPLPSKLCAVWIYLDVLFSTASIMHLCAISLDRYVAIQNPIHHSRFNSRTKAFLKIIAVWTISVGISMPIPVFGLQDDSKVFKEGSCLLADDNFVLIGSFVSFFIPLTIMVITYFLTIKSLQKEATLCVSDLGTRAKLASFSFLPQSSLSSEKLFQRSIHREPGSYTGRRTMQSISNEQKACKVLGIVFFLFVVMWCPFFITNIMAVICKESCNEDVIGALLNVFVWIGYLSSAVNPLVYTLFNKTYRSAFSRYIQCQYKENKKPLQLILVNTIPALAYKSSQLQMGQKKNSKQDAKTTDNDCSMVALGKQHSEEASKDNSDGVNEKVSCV

Progesterone receptor = target: T2, Progesterone receptor (Homo sapiens, UniProt P06401); type: functional
T2 sequence (P06401 whole entry): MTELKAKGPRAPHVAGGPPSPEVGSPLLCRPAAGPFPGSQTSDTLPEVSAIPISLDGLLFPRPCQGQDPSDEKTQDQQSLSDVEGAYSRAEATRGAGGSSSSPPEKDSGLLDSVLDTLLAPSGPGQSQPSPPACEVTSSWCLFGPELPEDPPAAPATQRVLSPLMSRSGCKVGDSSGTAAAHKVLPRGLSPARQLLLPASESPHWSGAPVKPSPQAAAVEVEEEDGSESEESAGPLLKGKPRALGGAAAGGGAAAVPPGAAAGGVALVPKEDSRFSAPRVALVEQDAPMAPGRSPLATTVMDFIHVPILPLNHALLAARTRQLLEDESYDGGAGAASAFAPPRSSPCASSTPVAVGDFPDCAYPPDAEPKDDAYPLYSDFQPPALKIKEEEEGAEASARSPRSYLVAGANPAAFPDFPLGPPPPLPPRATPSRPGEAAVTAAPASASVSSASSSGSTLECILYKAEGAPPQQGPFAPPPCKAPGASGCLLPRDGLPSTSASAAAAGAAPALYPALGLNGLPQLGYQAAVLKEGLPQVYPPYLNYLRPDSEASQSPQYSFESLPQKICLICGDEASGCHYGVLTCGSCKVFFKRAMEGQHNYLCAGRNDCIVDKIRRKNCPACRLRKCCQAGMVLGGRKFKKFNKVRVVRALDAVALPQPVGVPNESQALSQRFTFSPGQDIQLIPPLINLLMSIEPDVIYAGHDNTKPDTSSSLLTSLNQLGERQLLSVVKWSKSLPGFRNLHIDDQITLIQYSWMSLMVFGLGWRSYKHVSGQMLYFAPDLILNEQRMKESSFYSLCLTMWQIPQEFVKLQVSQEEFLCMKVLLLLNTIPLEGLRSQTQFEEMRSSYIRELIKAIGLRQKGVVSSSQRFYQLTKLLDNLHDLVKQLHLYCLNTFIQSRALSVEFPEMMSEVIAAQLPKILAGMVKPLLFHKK

[5] = target: Vascular endothelial growth factor receptor 2 (Homo sapiens, UniProt P35968); type: functional
Vascular endothelial growth factor receptor 2, sequence (P35968 whole entry): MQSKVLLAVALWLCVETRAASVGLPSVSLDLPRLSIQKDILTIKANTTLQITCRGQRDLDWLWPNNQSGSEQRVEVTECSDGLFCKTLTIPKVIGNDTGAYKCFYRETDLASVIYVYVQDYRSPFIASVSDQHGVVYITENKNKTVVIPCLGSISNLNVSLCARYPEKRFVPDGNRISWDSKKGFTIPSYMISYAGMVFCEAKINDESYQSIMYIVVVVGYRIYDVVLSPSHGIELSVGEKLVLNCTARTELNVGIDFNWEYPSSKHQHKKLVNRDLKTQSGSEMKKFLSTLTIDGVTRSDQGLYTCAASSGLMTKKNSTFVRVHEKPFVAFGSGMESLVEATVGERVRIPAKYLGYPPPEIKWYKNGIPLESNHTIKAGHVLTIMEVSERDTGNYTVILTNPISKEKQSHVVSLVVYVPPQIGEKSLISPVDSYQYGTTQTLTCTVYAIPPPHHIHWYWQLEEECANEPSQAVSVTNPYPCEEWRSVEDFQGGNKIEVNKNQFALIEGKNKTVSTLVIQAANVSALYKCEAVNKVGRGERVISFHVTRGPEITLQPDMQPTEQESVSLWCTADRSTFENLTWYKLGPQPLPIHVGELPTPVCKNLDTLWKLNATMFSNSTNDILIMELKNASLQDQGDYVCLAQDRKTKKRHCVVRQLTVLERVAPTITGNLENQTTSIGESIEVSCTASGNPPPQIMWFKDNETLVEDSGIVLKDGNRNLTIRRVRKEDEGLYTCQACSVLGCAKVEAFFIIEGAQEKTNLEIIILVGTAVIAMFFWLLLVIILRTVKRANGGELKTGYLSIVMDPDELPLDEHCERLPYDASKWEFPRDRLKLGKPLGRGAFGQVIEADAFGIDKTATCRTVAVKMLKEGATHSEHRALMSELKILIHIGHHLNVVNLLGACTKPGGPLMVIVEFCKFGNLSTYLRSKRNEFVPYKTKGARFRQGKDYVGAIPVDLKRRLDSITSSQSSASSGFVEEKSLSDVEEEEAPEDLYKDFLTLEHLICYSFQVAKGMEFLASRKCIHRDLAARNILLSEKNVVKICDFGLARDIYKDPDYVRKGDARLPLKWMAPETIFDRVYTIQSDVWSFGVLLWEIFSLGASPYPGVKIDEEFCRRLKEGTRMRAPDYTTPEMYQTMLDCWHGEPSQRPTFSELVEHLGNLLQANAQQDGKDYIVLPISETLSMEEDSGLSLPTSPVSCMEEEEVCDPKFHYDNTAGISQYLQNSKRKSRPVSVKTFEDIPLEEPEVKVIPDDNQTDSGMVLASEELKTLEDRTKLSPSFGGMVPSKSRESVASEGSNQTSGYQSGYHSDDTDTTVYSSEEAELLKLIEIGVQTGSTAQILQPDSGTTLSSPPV

[6] = target: T3, Amine oxidase [flavin-containing] A (Homo sapiens, UniProt P21397); type: functional
T3 sequence (P21397 whole entry): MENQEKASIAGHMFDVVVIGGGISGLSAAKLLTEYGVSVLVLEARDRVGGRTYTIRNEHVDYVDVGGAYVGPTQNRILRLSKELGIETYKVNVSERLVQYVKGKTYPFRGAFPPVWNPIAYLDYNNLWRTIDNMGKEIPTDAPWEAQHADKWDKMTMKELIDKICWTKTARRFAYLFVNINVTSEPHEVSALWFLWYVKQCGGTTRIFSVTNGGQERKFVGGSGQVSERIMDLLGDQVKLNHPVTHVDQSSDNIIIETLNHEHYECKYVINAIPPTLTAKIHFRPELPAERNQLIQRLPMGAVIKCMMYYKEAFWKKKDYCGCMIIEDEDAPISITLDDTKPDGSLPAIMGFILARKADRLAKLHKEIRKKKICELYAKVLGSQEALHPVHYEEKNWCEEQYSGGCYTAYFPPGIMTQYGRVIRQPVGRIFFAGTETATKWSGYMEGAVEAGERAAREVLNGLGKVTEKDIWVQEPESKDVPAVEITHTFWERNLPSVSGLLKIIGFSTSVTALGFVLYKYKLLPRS

Thromboxane A2 receptor = target: T4, Thromboxane A2 receptor (Homo sapiens, UniProt P21731); type: functional, cell-based
T4 sequence (P21731 whole entry): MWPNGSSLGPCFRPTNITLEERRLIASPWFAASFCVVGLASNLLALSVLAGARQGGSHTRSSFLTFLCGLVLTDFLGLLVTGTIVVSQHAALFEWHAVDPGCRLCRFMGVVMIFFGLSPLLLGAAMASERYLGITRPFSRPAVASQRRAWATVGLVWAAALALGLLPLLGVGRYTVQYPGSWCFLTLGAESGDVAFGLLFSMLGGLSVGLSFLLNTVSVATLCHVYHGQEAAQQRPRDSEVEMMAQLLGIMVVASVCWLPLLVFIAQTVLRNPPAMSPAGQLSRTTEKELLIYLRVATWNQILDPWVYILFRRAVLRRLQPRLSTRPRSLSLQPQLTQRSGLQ
Also: assay procedure not described here.

Row | SMILES | AC50 [1] [µM] | AC50 [2] [µM] | AC50 (Vasopressin V1a receptor) [µM] | AC50 [3] [µM] | AC50 [4] [µM] | AC50 (Progesterone receptor) [µM] | AC50 [5] [µM] | AC50 [6] [µM] | AC50 (Thromboxane A2 receptor) [µM]
1 | CCC(C)C(CC)C(N)=O (stereo not given) [VALNOCTAMIDE] | > 30 | > 30 | > 30 | > 30 | > 30 | > 30 | – | – | –
2 | CC(C)[C@H](N)C(=O)OCC(CO)OCn1cnc2c(=O)nc(N)[nH]c21 (stereo not given in full) [VALGANCICLOVIR] | > 30 | > 30 | > 30 | > 30 | > 30 | > 30 | – | – | –
3 | C#C[C@]1(OC(C)=O)CC[C@H]2[C@@H]3CCC4=C/C(=N/O)CC[C@@H]4[C@H]3CC[C@@]21CC [NORGESTIMATE] | > 30 | > 30 | > 30 | > 30 | > 30 | – | – | – | –
4 | C/N=C(\NC)NCc1ccccc1 [BETHANIDINE] | > 30 | – | > 30 | > 30 | > 30 | > 30 | – | – | –
5 | CN1CCN(C2=Nc3ccccc3Oc3ccc(Cl)cc32)CC1 [LOXAPINE] | – | > 10 | > 10 | > 10 | – | – | > 30 | > 30 | 18.5
6 | COc1cc(N)c(Cl)cc1C(=O)NC1CCN(Cc2ccccc2)CC1 [CLEBOPRIDE] | 18 | – | > 30 | 0.13 | > 30 | > 30 | – | – | –
7 | CCC(=O)O[C@]1(C(=O)CCl)[C@@H](C)C[C@H]2[C@@H]3C[C@H](F)C4=CC(=O)C=C[C@]4(C)[C@@]3(F)[C@@H](O)C[C@@]21C [HALOBETASOL PROPIONATE] | – | – | – | – | – | – | > 30 | > 30 | > 30
8 | Cc1cc(NC(=O)C2=C(O)c3ccccc3S(=O)(=O)N2C)no1 [ISOXICAM] | – | – | – | – | – | – | 24.4 | > 30 | > 30
9 | O=[N+]([O-])c1ccc(O)c2ncccc12 [NITROXOLINE] | 8.8 | – | – | > 30 | > 30 | – | – | > 30 | > 30
10 | CCOC(=O)c1cncn1[C@H](C)c1ccccc1 [ETOMIDATE] | > 10 | > 10 | > 10 | – | > 10 | > 10 | – | – | –
11 | CNCc1ccc(-c2[nH]c3cc(F)cc4c3c2CCNC4=O)cc1 [RUCAPARIB] | – | 40.1 | > 30 | – | > 10 | – | – | – | –
12 | C[C@]12CCC(=O)C(O)=C1CC[C@@H]1[C@@H]2CC[C@]2(C)C(=O)CC[C@@H]12 [FORMESTANE] | > 30 | > 30 | > 30 | > 30 | > 30 | – | – | – | –
13 | CCC(=O)O[C@H]1CC[C@H]2[C@@H]3CCC4=CC(=O)CC[C@]4(C)[C@H]3CC[C@]12C [TESTOSTERONE PROPIONATE] | > 10 | > 10 | > 10 | > 30 | > 30 | – | – | – | –
14 | CC1=CCC(C(C)(C)O)CC1O (stereo not given) [SOBREROL] | – | – | – | – | – | – | > 30 | > 30 | > 30
15 | Cc1cc(N)c2ccccc2[n+]1CCCCCCCCCC[n+]1c(C)cc(N)c2ccccc21 | – | – | – | – | – | – | > 30 | 16.8 | > 30
16 | Cc1ccccc1N1CCN(CCc2nnc3n2CCCC3)CC1 [DAPIPRAZOLE] | – | – | – | – | – | – | > 30 | > 30 | > 30
17 | COc1cc2c(cc1OC)CC(=O)N(CCCN(C)C[C@H]1Cc3cc(OC)c(OC)cc31)CC2 [IVABRADINE] | – | – | – | – | – | – | > 30 | > 30 | > 30
18 | CCCc1nc(C(C)(C)O)c(C(=O)O)n1Cc1ccc(-c2ccccc2-c2nnn[nH]2)cc1 [OLMESARTAN] | – | – | – | – | – | – | > 30 | > 30 | > 30
19 | CC(C)(C)C(=O)OCC(=O)[C@H]1CC[C@H]2[C@@H]3CCC4=CC(=O)CC[C@]4(C)[C@H]3CC[C@]12C [DESOXYCORTICOSTERONE PIVALATE] | > 10 | > 10 | > 10 | > 10 | > 10 | – | – | – | –
20 | Cc1ncc(COP(=O)(O)O)c(C=O)c1O [PYRIDOXAL PHOSPHATE ANHYDROUS] | – | – | – | – | – | – | > 30 | > 30 | > 30
21 | CC(C)COCC(CN(Cc1ccccc1)c1ccccc1)N1CCCC1 (stereo not given) [BEPRIDIL] | 6.2 | – | > 30 | – | > 30 | > 30 | – | – | –
22 | COC(=O)c1ccc(O)cc1 [METHYLPARABEN] | – | – | – | – | – | – | > 30 | > 30 | > 30
23 | CN(C)CCOC(c1ccccc1)c1ccc(Br)cc1 (stereo not given) [BROMODIPHENHYDRAMINE] | – | – | – | – | – | – | > 30 | > 30 | 14.8
24 | COc1cc(N2CCC(N3CCN(C)CC3)CC2)ccc1Nc1ncc(Cl)c(Nc2ccccc2P(C)(C)=O)n1 [BRIGATINIB] | – | – | – | – | – | – | 0.183 | > 30 | > 30
25 | CCC(C)C1(CC)C(=O)NC(=O)NC1=O (stereo not given) [BUTABARBITAL] | – | > 30 | > 30 | – | > 30 | > 30 | – | – | –
26 | CCC(=O)O[C@]1(C(=O)SCF)[C@H](C)C[C@H]2[C@@H]3C[C@H](F)C4=CC(=O)C=C[C@]4(C)[C@@]3(F)[C@@H](O)C[C@@]21C [FLUTICASONE PROPIONATE] | > 30 | > 30 | > 30 | > 30 | – | – | > 30 | > 30 | > 30
27 | CC1(C)S[C@@H]2[C@H](NC(=O)[C@H](N)c3ccccc3)C(=O)N2[C@H]1C(=O)OCOC(=O)[C@@H]1N2C(=O)C[C@H]2S(=O)(=O)C1(C)C [SULTAMICILLIN] | > 30 | – | > 30 | > 30 | > 30 | > 30 | – | – | –
28 | Cc1c(N(C)CS(=O)(=O)O)c(=O)n(-c2ccccc2)n1C [METAMIZOLE] | – | – | – | – | – | – | > 30 | > 30 | > 30
29 | CC(=O)O[C@]1(C(C)=O)CC[C@H]2[C@@H]3C=C(Cl)C4=CC(=O)CC[C@]4(C)[C@H]3CC[C@@]21C [CHLORMADINONE ACETATE] | – | – | – | – | – | – | > 30 | > 30 | 28.5
30 | C[C@H](Cc1ccc(O)c(O)c1)[C@@H](C)Cc1ccc(O)c(O)c1 [MASOPROCOL] | 8.1 | > 30 | > 10 | > 10 | > 30 | – | – | – | –

From ChEMBL document CHEMBL5291721, “A preclinical secondary pharmacology resource illuminates target-adverse drug reaction associations of marketed drugs” (Nat Commun, 2023)
